Assay results as given in PMC11554305, “Functional identification of soluble uric acid as an endogenous inhibitor of CD38” (eLife, 2024).

Assays:
CD38 = target: T1, CD38 (Mus musculus, UniProt P56528); experiment: Hydrolase and cyclase activities of human and murine CD38; format: biochemical; details: lung tissues from WT mice, OA 0–5 mM
T1 construct: host or cells: recombinant hCD38, cells and mouse tissues
T1 sequence (P56528 1-304): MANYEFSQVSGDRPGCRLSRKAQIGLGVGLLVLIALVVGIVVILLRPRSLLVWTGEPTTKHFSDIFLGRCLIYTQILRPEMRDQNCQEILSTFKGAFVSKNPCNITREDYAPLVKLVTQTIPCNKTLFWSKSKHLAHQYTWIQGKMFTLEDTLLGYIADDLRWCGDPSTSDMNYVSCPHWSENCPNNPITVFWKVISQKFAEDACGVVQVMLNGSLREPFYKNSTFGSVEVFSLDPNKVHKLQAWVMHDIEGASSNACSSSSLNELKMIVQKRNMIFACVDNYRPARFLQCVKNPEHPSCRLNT

primed THP-1 cells = experiment: Canonical inflammasome assay, IL-1β release in primed THP-1 cells; format: cell-based, human
Method: Human IL-1β, mouse IL-1β, IL-6, IL-18, TNF-α, and CXCL1 levels were measured according to the protocols provided by the manufacturer. Serum samples were diluted before ELISA when applicable. In this study, all the samples were frozen after collection and thawed before ELISA.
Naïve THP-1 cells were primed with 0.5 μM phorbol 12-myristate 13-acetate for 3 hr the day before stimulation. Primed THP-1 cells were pre-incubated in RPMI-1640 medium in the presence or absence of sUA (5 or 10 mg/dL) for 2 hr. The cells were then washed twice with sterile PBS, and were stimulated with MSU crystals, cLPS, zymosan, and ATP in serum-free RPMI-1640 medium for 4 hr.
After stimulation, the culture medium was collected and centrifuged at 3000 rpm, 4°C for 5 min, the supernatant was collected and stored at –30°C until ELISA.

| Compound | IC50 for CD38 (in words) (CD38) | Induction of IL-1β release by sUA itself (primed THP-1 cells) | IL-1β release after stimulation (primed THP-1 cells; sUA pre-incubation 2 hr, then MSU crystals, cLPS, zymosan or ATP) |
| --- | --- | --- | --- |
| O=C(O)c1nc(=O)[nH]c(=O)[nH]1 [OA, oxonic acid, reference compound] | millimolar range | – | – |
| O=c1[nH]c(=O)c2[nH]c(=O)[nH]c2[nH]1 [sUA, uric acid] | – | did not induce IL-1β release | moderately limited IL-1β release |
